Laboratory results taken from PubChem BioAssay (NCI).
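Step 1: Grow cells in 96-well plates. Step 2: Expose to compound for 48 hours at 5 concentrations. Step 3: Interpolate endpoints linearly; if unreached, use highest concentration. TGI marks complete inhibition of growth.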

Tests used:
Test in all cases: NCI anticancer screen, dose series, 48 h
[1] = test system: UO-31 renal
[2] = test system: OVCAR-3 ovarian
[3] = test system: MDA-MB-231 breast
[4] = test system: M14 melanoma
[5] = test system: ACHN renal
[6] = test system: MDA-N
[7] = test system: SF-268 CNS
[8] = test system: SN12C renal
[9] = test system: LOX IMVI melanoma
[10] = test system: HOP-92 NSCLC
[11] = test system: HL-60(TB) leukemia
[12] = test system: T-47D breast
[13] = test system: CAKI-1 renal
[14] = test system: SF-295 CNS
[15] = test system: HS 578T breast
[16] = test system: A549 NSCLC
[17] = test system: TK-10 renal
[18] = test system: HOP-62 NSCLC
[19] = test system: NCI-H522 lung
[20] = test system: CCRF-CEM leukemia
[21] = test system: 786-0 renal
[22] = test system: COLO 205 colon
[23] = test system: NCI/ADR-RES ovarian
[24] = test system: MOLT-4 leukemia
[25] = test system: RXF 393 renal
[26] = test system: SK-OV-3 ovarian
[27] = test system: MDA-MB-435
[28] = test system: OVCAR-4 ovarian
[29] = test system: OVCAR-8 ovarian
[30] = test system: HCT-116 colon
[31] = test system: HCT-15 colon
[32] = test system: SNB-19 CNS
[33] = test system: SK-MEL-5 melanoma
[34] = test system: PC-3 prostate
[35] = test system: A498 renal
[36] = test system: U251 CNS
[37] = test system: OVCAR-5 ovarian
[38] = test system: SNB-75 CNS
[39] = test system: MALME-3M melanoma
[40] = test system: RPMI-8226 leukemia
[41] = test system: SK-MEL-28 melanoma
[42] = test system: EKVX NSCLC
[43] = test system: NCI-H23 lung
[44] = test system: UACC-257 melanoma
[45] = test system: KM12 colon
[46] = test system: SF-539 CNS
[47] = test system: NCI-H460 lung
[48] = test system: IGROV1 ovarian
[49] = test system: BT-549 breast
[50] = test system: MCF7 breast
[51] = test system: K-562 leukemia
[52] = test system: HT29 colon
[53] = test system: UACC-62 melanoma
[54] = test system: SK-MEL-2 melanoma
[55] = test system: DU-145 prostate
[56] = test system: NCI-H226 lung
[57] = test system: HCC-2998 colon
[58] = test system: SW-620 colon
[59] = test system: SR leukemia

Measured: TGI

COc1ccc(C2=NN(C(=O)c3ccc(Cl)cc3)C(O)(c3cc(F)c(Cl)cc3Cl)C2)cc1 (stereo not drawn)
44.4 µM: [1]
not listed: [58] | [59]
> 100 µM: all other assays above

O=C1NC(N2CCCCC2)=N/C1=C\c1ccco1
not listed: [35] | [38] | [47] | [51]
> 100 µM: all other assays above

C/C(=N\NC(=S)N1CCN(c2ccccn2)CC1)c1cccc2cccnc12
27.8 µM: [53]
15.4 µM: [23]
> 29.7 µM: [36]
> 31.6 µM: [46]
34.8 µM: [8]
38.4 µM: [56]
> 29 µM: [2]
> 58.9 µM: [57]
> 42.8 µM: [20]
> 70.2 µM: [38]
9.63 µM: [19]
> 62.2 µM: [24]
12.3 µM: [11]
55.8 µM: [14]
> 60.1 µM: [37]
> 87.6 µM: [12]
20.2 µM: [40]
6.71 µM: [30]
52.3 µM: [10]
> 38.7 µM: [59]
> 45.3 µM: [42]
> 46.1 µM: [22]
71.1 µM: [35]
8.56 µM: [54]
43.5 µM: [26]
21.2 µM: [52]
> 56.5 µM: [1]
> 64.6 µM: [3]
> 47.4 µM: [4]
> 43.2 µM: [33]
not listed: [55]
> 100 µM: all other assays above

c1ccc(/C(=N\Nc2nc3ccccc3s2)c2ccccn2)cc1
> 53.2 µM: [34]
> 72.5 µM: [50]
27.5 µM: [53]
24.4 µM: [21]
> 44.1 µM: [51]
30 µM: [55]
23.3 µM: [25]
39.8 µM: [8]
47.1 µM: [52]
4.17 µM: [24]
16.3 µM: [1]
> 28.8 µM: [5]
70.1 µM: [35]
> 88.9 µM: [15]
37.5 µM: [17]
> 51.4 µM: [37]
1.07 µM: [20]
7.91 µM: [33]
> 48.2 µM: [48]
15.4 µM: [42]
34.4 µM: [39]
6.54 µM: [11]
42.4 µM: [9]
29.7 µM: [56]
9.16 µM: [30]
16.9 µM: [22]
> 56.6 µM: [46]
36.7 µM: [19]
> 50.4 µM: [7]
98.6 µM: [26]
> 40.9 µM: [36]
46 µM: [57]
1.72 µM: [2]
12.8 µM: [47]
> 25.9 µM: [44]
27.9 µM: [40]
52.5 µM: [12]
97.8 µM: [18]
> 61.8 µM: [54]
22.6 µM: [4]
> 71.6 µM: [10]
not listed: [59]
> 100 µM: all other assays above

Nc1ncnc2c1ncn2CCCCC(=O)O
not listed: [11] | [20]
> 100 µM: all other assays above

CCSCCCC(=O)O
not listed: [10] | [46] | [47]
> 100 µM: all other assays above

COC1C(=O)N(SC)C1c1ccccc1Cl (stereo not drawn)
44.5 µM: [40]
38.6 µM: [48]
30.3 µM: [28]
42.4 µM: [59]
58.5 µM: [12]
32.9 µM: [21]
32.2 µM: [37]
39.4 µM: [29]
45.6 µM: [58]
33.5 µM: [19]
54.2 µM: [49]
24.4 µM: [30]
40.7 µM: [52]
35.1 µM: [20]
42.2 µM: [11]
53.9 µM: [27]
87.3 µM: [3]
28.8 µM: [57]
33.9 µM: [5]
66.2 µM: [51]
34.3 µM: [2]
44.4 µM: [39]
33.3 µM: [1]
35.2 µM: [46]
94.2 µM: [4]
31.6 µM: [24]
45.1 µM: [31]
43 µM: [50]
64.6 µM: [42]
47.3 µM: [8]
not listed: [38] | [56]
> 100 µM: all other assays above
